# Reference: patent US20240246935A1 (Plexium, Inc., priority 2021, published 2024)
# Tested on: IKZF2 (Helios)
# Assay: IKZF2 reporter degradation assay (HEK 293T IKZF2-mNeonGreen reporter cell line)
# Assay type: cell-based, human
# Conditions: 1 μM compound, 24 hour incubation, HEK 293T IKZF2-mNeonGreen reporter
# Outline: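 HEK 293T lines stably expressing each IKZF-GGGGS×3-mNeonGreen-P2A-mScarlet reporter, 4000 cells/well in FluoroBrite medium, treated with compound (≤0.5% DMSO) for 24 h at 37 °C. Imaging measured percent mNeonGreen-positive cells, with mScarlet used for segmentation; DC50 from four-parameter logistic fit.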
row,Compound,IKZF2 % Degradation @ 1 μM [%]
1,"N#Cc1cc(Cl)ccc1C1CN([C@@H]2CCCC[C@@H]2Oc2ccc3c(c2)CN(C2CCC(=O)NC2=O)C3=O)C1 (mixture of isomers) [Compound 100, Rac-5-chloro-2-(1-((cis)-2-((2-(2,6-dioxopiperidin-3-yl)-1-oxoisoindolin-5-yl)oxy)cyclohexyl)azetidin-3-yl)benzonitrile]",<15
2,"O=C1CCC(N2Cc3cc(O[C@H]4CCCC[C@@H]4N4CC(c5ccc(F)cc5)C4)ccc3C2=O)C(=O)N1 (single isomer, unassigned) [Compound 50]",73.6
3,"O=C1CCC(N2Cc3cc(O[C@H]4CCCC[C@@H]4N4CC(c5ccccc5)C4)c(F)cc3C2=O)C(=O)N1 (single isomer, unassigned) [Compound 52]",90.5
4,"O=C1CCC(N2Cc3c(ccc(O[C@H]4CCCC[C@@H]4N4CC(c5ccccc5)C4)c3F)C2=O)C(=O)N1 (single isomer, unassigned) [Compound 65]",75.1
5,"O=C1CCC(N2Cc3c(ccc(O[C@H]4CCCC[C@@H]4N4CC(c5ccccc5)C4)c3F)C2=O)C(=O)N1 (single isomer, unassigned) [Compound 66]",74.8
6,"O=C1CCC(N2Cc3cc(O[C@H]4CCCC[C@@H]4N4CC(c5cccc(OC(F)(F)F)c5)C4)ccc3C2=O)C(=O)N1 (stereo partly drawn) [Compound 35, 3-(1-oxo-5-(((1S,2S)-2-(3-(3-(trifluoromethoxy)phenyl)azetidin-1-yl)cyclohexyl)oxy)isoindolin-2-yl)piperidine-2,6-dione]",84.6
7,"O=C1CCC(N2Cc3cc(O[C@H]4CCCC[C@@H]4N4CC(c5ccccc5OC(F)(F)F)C4)ccc3C2=O)C(=O)N1 (stereo partly drawn) [Compound 36, 3-(1-oxo-5-(((1S,2S)-2-(3-(2-(trifluoromethoxy)phenyl)azetidin-1-yl)cyclohexyl)oxy)isoindolin-2-yl)piperidine-2,6-dione]",82.3
8,"O=C1CCC(N2Cc3cc(O[C@H]4CCCC[C@@H]4N4CC(c5cccc(F)c5F)C4)ccc3C2=O)C(=O)N1 (stereo partly drawn) [Compound 64, 3-(5-(((1S,2S)-2-(3-(2,3-difluorophenyl)azetidin-1-yl)cyclohexyl)oxy)-1-oxoisoindolin-2-yl)piperidine-2,6-dione]",76.3
9,"O=C1CCC(N2Cc3cc(O[C@H]4CCCC[C@@H]4N4CC(c5cccc(F)c5)C4)ccc3C2=O)C(=O)N1 (stereo partly drawn) [Compound 111, 3-(5-(((1S,2S)-2-(3-(3-fluorophenyl)azetidin-1-yl)cyclohexyl)oxy)-1-oxoisoindolin-2-yl)piperidine-2,6-dione]",76.5
10,"O=C1CCC(N2Cc3cc(O[C@H]4CCCC[C@@H]4N4CC(c5ccc(N6CCOCC6)cc5)C4)ccc3C2=O)C(=O)N1 (stereo partly drawn) [Compound 124, 3-(5-(((1S,2S)-2-(3-(4-morpholinophenyl)azetidin-1-yl)cyclohexyl)oxy)-1-oxoisoindolin-2-yl)piperidine-2,6-dione]",70.2
11,"O=C1CC[C@@H](N2Cc3cc(O[C@H]4CCCC[C@@H]4N4CC(c5ccccc5)C4)ccc3C2=O)C(=O)N1 [Compound 125, (R)-3-(1-oxo-5-(((1S,2S)-2-(3-phenylazetidin-1-yl)cyclohexyl)oxy)isoindolin-2-yl)piperidine-2,6-dione]",83.2
12,"O=C1CCC(N2Cc3cc(O[C@H]4CCCC[C@@H]4N4CC(c5ccccc5C(F)(F)F)C4)ccc3C2=O)C(=O)N1 (stereo partly drawn) [Compound 129, 3-(1-oxo-5-(((1S,2S)-2-(3-(2-(trifluoromethyl)phenyl)azetidin-1-yl)cyclohexyl)oxy)isoindolin-2-yl)piperidine-2,6-dione]",83.8
13,"O=C(O)CC(O)(CC(=O)O)C(=O)O.O=C1CCC(N2Cc3cc(O[C@H]4CCCC[C@@H]4N4CC(c5ccccc5)C4)ccc3C2=O)C(=O)N1 (stereo partly drawn) [Compound 130, 3-(1-oxo-5-(((1S,2S)-2-(3-phenylazetidin-1-yl)cyclohexyl)oxy)isoindolin-2-yl)piperidine-2,6-dione 2-hydroxypropane-1,2,3-tricarboxylate]",84.8
14,"O=C1CCC(N2Cc3cc(O[C@H]4CCCCC[C@@H]4N4CC(c5ccccc5)C4)ccc3C2=O)C(=O)N1 (stereo partly drawn) [Compound 131, 3-(1-oxo-5-(((1S,2S)-2-(3-phenylazetidin-1-yl)cycloheptyl)oxy)isoindolin-2-yl)piperidine-2,6-dione]",92.3
15,"O=C1CCC(N2Cc3cc(O[C@H]4CCCC[C@@H]4N4CC(c5ccc(O)cc5)C4)ccc3C2=O)C(=O)N1 (stereo partly drawn) [Compound 132, 3-(5-(((1S,2S)-2-(3-(4-hydroxyphenyl)azetidin-1-yl)cyclohexyl)oxy)-1-oxoisoindolin-2-yl)piperidine-2,6-dione]",77.2
16,"O=C1CCC(N2Cc3cc(O[C@H]4CCCC[C@@H]4N4CC(c5ccccc5O)C4)ccc3C2=O)C(=O)N1 (stereo partly drawn) [Compound 133, 3-(5-(((1S,2S)-2-(3-(2-hydroxyphenyl)azetidin-1-yl)cyclohexyl)oxy)-1-oxoisoindolin-2-1)piperidine-2,6-dione]",56.4
17,"O=C1CCC(N2Cc3cc(O[C@H]4CCCC[C@@H]4N4CC(c5cccc(O)c5)C4)ccc3C2=O)C(=O)N1 (stereo partly drawn) [Compound 134, 3-(5-(((1S,2S)-2-(3-(3-hydroxyphenyl)azetidin-1-yl)cyclohexyl)oxy)-1-oxoisoindolin-2-yl)piperidine-2,6-dione]",75
